Earlier results, collected in PubChem BioAssay AID1259409 (Chemical Carcinogenesis Research Information System (CCRIS), 2018).

Tested on: rodent chemically induced tumor inhibition, incidence and multiplicity
Experiment: CCRIS tumor inhibitor studies

For `S=C=NCCCCCCCCc1ccccc1`, the “tumour outcome (control, treated, inhibition, significance)” value (Carcinogen: 4-(METHYLNITROSAMINO)-1-(3-PYRIDYL)-1-BUTANONE, 64091-91-4, Dose [Inhibitor]: 0, 0.04 UMOL ONCE 2 HR PRIOR TO CARCINOGEN DOSE (STUDY DURATION: 16 WK), Route [Inhibitor]: GAVAGE, Species: MOUSE, Strain/Sex: STRAIN-A/FEMALE, Target Tissue: Type of Lesion: LUNG: ADENOMA, Dose [Carcinogen]: 10 UMOL IN 0.1 ML SALINE ONCE, Promoter: NONE USED) is given as 100%, 100%, 0%, not significant, the “tumour outcome (control, treated, inhibition, significance)” value (Carcinogen: 4-(METHYLNITROSAMINO)-1-(3-PYRIDYL)-1-BUTANONE, 64091-91-4, Dose [Inhibitor]: 0, 0.1 UMOL ONCE 2 HR PRIOR TO CARCINOGEN DOSE (STUDY DURATION: 16 WK), Route [Inhibitor]: GAVAGE, Species: MOUSE, Strain/Sex: STRAIN-A/FEMALE, Target Tissue: Type of Lesion: LUNG: ADENOMA, Dose [Carcinogen]: 10 UMOL IN 0.1 ML SALINE ONCE, Promoter: NONE USED) is given as 100%, 100%, 0%, not significant and the “tumour outcome (control, treated, inhibition, significance)” value (Carcinogen: 4-(METHYLNITROSAMINO)-1-(3-PYRIDYL)-1-BUTANONE, 64091-91-4, Dose [Inhibitor]: 0, 0.2 UMOL ONCE 2 HR PRIOR TO CARCINOGEN DOSE (STUDY DURATION: 16 WK), Route [Inhibitor]: GAVAGE, Species: MOUSE, Strain/Sex: STRAIN-A/FEMALE, Target Tissue: Type of Lesion: LUNG: ADENOMA, Dose [Carcinogen]: 10 UMOL IN 0.1 ML SALINE ONCE, Promoter: NONE USED) is given as 100%, 90%, 10%, p<0.05.
For `CCCCNC(=O)\C=C(C)/C=C/C=C(C)/C=C/C1=C(C)CCCC1(C)C`, the “tumour outcome (control, treated, inhibition, significance)” value (Carcinogen: N-BUTYL-N-(4-HYDROXYBUTYL)NITROSAMINE, 3817-11-6, Dose [Inhibitor]: 1.5 MMOL/KG IN DIET FOR 133 D STARTING 1 WK AFTER THE LAST CARCINOGEN DOSE ( STUDY DURATION: 190 D), Route [Inhibitor]: ORAL, Species: MOUSE, Strain/Sex: BDF/MALE, Target Tissue: Type of Lesion: URINARY BLADDER: TRANSITIONAL CELL CARCINOMA, Dose [Carcinogen]: 7.5 MG 1/WK FOR 8 WK, Promoter: NONE USED) is listed as 21/100 (21%), 19/97 (20%), 5%, not significant.
For `Cc1c2ccncc2c(C)c2c1[nH]c1ccccc12`, the “tumour outcome (control, treated, inhibition, significance)” value (Carcinogen: 7,12-DIMETHYLBENZ[A]ANTHRACENE, 57-97-6, Dose [Inhibitor]: 0, 4.1 NMOL IN 0.2 ML ACETONE APPLIED 5 MIN PRIOR TO CARCINOGEN (STUDY DURATION: 21 WK), Route [Inhibitor]: DERMAL, Species: MOUSE, Strain/Sex: SENCAR/FEMALE, Target Tissue: Type of Lesion: SKIN: PAPILLOMA, Dose [Carcinogen]: 10 NMOL IN 0.2 ML ACETONE ONCE, Promoter: 12-O-TETRADECANOYLPHORBOL-13-ACETATE, 16561-29-8) is listed as 79%, 100%, -27%, not calculated, the “tumour outcome (control, treated, inhibition, significance)” value (Carcinogen: 7,12-DIMETHYLBENZ[A]ANTHRACENE, 57-97-6, Dose [Inhibitor]: 0, 41 NMOL IN 0.2 ML ACETONE APPLIED 5 MIN PRIOR TO CARCINOGEN (STUDY DURATION: 21 WK), Route [Inhibitor]: DERMAL, Species: MOUSE, Strain/Sex: SENCAR/FEMALE, Target Tissue: Type of Lesion: SKIN: PAPILLOMA, Dose [Carcinogen]: 10 NMOL IN 0.2 ML ACETONE ONCE, Promoter: 12-O-TETRADECANOYLPHORBOL-13-ACETATE, 16561-29-8) is listed as 79%, 87%, -10%, not calculated and the “tumour outcome (control, treated, inhibition, significance)” value (Carcinogen: 7,12-DIMETHYLBENZ[A]ANTHRACENE, 57-97-6, Dose [Inhibitor]: 0, 410 NMOL IN 0.2 ML ACETONE APPLIED 5 MIN PRIOR TO CARCINOGEN (STUDY DURATION: 21 WK), Route [Inhibitor]: DERMAL, Species: MOUSE, Strain/Sex: SENCAR/FEMALE, Target Tissue: Type of Lesion: SKIN: PAPILLOMA, Dose [Carcinogen]: 10 NMOL IN 0.2 ML ACETONE ONCE, Promoter: 12-O-TETRADECANOYLPHORBOL-13-ACETATE, 16561-29-8) is listed as 79%, 47%, 41%, not calculated. For the same compound, the “tumour outcome (control, treated, inhibition, significance)” value (Carcinogen: 7,14-DIMETHYLBENZO[A,H]ANTHRACENE, 35335-07-0, Dose [Inhibitor]: 0, 4.1 NMOL IN 0.2 ML ACETONE APPLIED 5 MIN PRIOR TO CARCINOGEN (STUDY DURATION: 21 WK), Route [Inhibitor]: DERMAL, Species: MOUSE, Strain/Sex: SENCAR/FEMALE, Target Tissue: Type of Lesion: SKIN: PAPILLOMA, Dose [Carcinogen]: 47.5 NMOL IN 0.2 ML ACETONE ONCE, Promoter: 12-O-TETRADECANOYLPHORBOL-13-ACETATE, 16561-29-8) was 97%, 100%, -3%, not calculated, the “tumour outcome (control, treated, inhibition, significance)” value (Carcinogen: 7,14-DIMETHYLBENZO[A,H]ANTHRACENE, 35335-07-0, Dose [Inhibitor]: 0, 41 NMOL IN 0.2 ML ACETONE APPLIED 5 MIN PRIOR TO CARCINOGEN (STUDY DURATION: 21 WK), Route [Inhibitor]: DERMAL, Species: MOUSE, Strain/Sex: SENCAR/FEMALE, Target Tissue: Type of Lesion: SKIN: PAPILLOMA, Dose [Carcinogen]: 47.5 NMOL IN 0.2 ML ACETONE ONCE, Promoter: 12-O-TETRADECANOYLPHORBOL-13-ACETATE, 16561-29-8) was 97%, 93%, 4%, not calculated and the “tumour outcome (control, treated, inhibition, significance)” value (Carcinogen: 7,14-DIMETHYLBENZO[A,H]ANTHRACENE, 35335-07-0, Dose [Inhibitor]: 0, 410 NMOL IN 0.2 ML ACETONE APPLIED 5 MIN PRIOR TO CARCINOGEN (STUDY DURATION: 21 WK), Route [Inhibitor]: DERMAL, Species: MOUSE, Strain/Sex: SENCAR/FEMALE, Target Tissue: Type of Lesion: SKIN: PAPILLOMA, Dose [Carcinogen]: 47.5 NMOL IN 0.2 ML ACETONE ONCE, Promoter: 12-O-TETRADECANOYLPHORBOL-13-ACETATE, 16561-29-8) was 97%, 90%, 7%, not calculated. The “tumour outcome (control, treated, inhibition, significance)” value (Carcinogen: DIBENZO[A,H]ANTHRACENE, 53-70-3, Dose [Inhibitor]: 0, 4.1 NMOL IN 0.2 ML ACETONE APPLIED 5 MIN PRIOR TO CARCINOGEN (STUDY DURATION: 21 WK), Route [Inhibitor]: DERMAL, Species: MOUSE, Strain/Sex: SENCAR/FEMALE, Target Tissue: Type of Lesion: SKIN: PAPILLOMA, Dose [Carcinogen]: 200 NMOL IN 0.2 ML ACETONE ONCE, Promoter: 12-O-TETRADECANOYLPHORBOL-13-ACETATE, 16561-29-8) was 100%, 87%, 13%, not calculated, the “tumour outcome (control, treated, inhibition, significance)” value (Carcinogen: DIBENZO[A,H]ANTHRACENE, 53-70-3, Dose [Inhibitor]: 0, 41 NMOL IN 0.2 ML ACETONE APPLIED 5 MIN PRIOR TO CARCINOGEN (STUDY DURATION: 21 WK), Route [Inhibitor]: DERMAL, Species: MOUSE, Strain/Sex: SENCAR/FEMALE, Target Tissue: Type of Lesion: SKIN: PAPILLOMA, Dose [Carcinogen]: 200 NMOL IN 0.2 ML ACETONE ONCE, Promoter: 12-O-TETRADECANOYLPHORBOL-13-ACETATE, 16561-29-8) was 100%, 97%, 3%, not calculated and the “tumour outcome (control, treated, inhibition, significance)” value (Carcinogen: DIBENZO[A,H]ANTHRACENE, 53-70-3, Dose [Inhibitor]: 0, 410 NMOL IN 0.2 ML ACETONE APPLIED 5 MIN PRIOR TO CARCINOGEN (STUDY DURATION: 21 WK), Route [Inhibitor]: DERMAL, Species: MOUSE, Strain/Sex: SENCAR/FEMALE, Target Tissue: Type of Lesion: SKIN: PAPILLOMA, Dose [Carcinogen]: 200 NMOL IN 0.2 ML ACETONE ONCE, Promoter: 12-O-TETRADECANOYLPHORBOL-13-ACETATE, 16561-29-8) was 100%, 97%, 3%, not calculated.
For `Cc1ccc2oc(=O)ccc2c1`, the “tumour outcome (control, treated, inhibition, significance)” value (Carcinogen: BENZO[A]PYRENE, 50-32-8, Dose [Inhibitor]: 0.034 MMOL/G IN DIET FOR 5 WK BEGINNING 1 WK PRIOR TO FIRST CARCINOGEN DOSE AND CONTINUING FOR 3 D POST LAST CARCINOGEN, Route [Inhibitor]: ORAL, Species: MOUSE, Strain/Sex: ICR/FEMALE, Target Tissue: Type of Lesion: FORESTOMACH: TUMOR, Dose [Carcinogen]: 1 MG IN 0.2 ML CORN OIL 2/WK FOR 4 WK, Promoter: NONE USED) is listed as 90%, 90%, 0%, not significant.
For `CCCCCCCCCCCCCCCC(=O)OC[C@@]1(O)C[C@@]23CC[C@@H]4c5ccoc5CC[C@@]4(C)[C@@H]2CC[C@@H]1C3`, the “tumour outcome (control, treated, inhibition, significance)” value (Carcinogen: 7,12-DIMETHYLBENZ[A]ANTHRACENE, 57-97-6, Dose [Inhibitor]: 0, 60 MG 1/D FOR 3 D BEGINNING 3 D PRIOR TO CARCINOGEN DOSE (STUDY DURATION: 20 WK), Route [Inhibitor]: GAVAGE, Species: RAT, Strain/Sex: SPRAGUE-DAWLEY/FEMALE, Target Tissue: Type of Lesion: MAMMARY GLAND: TUMOR, Dose [Carcinogen]: 12 MG IN 1 ML OLIVE OIL ONCE, Promoter: NONE USED) is listed as 84%, 69%, 18%, not significant.
